Measurements as given in patent publication EP0123546A2, “Compositions for treating inflammation and eliciting analgesia” (Norwich Eaton Pharmaceuticals, Inc., priority 1983, dated 1984).
Read-outs that look alike come from different tables or passages of the source.

How the values were obtained:
[1] = test system: carrageenin-induced rat paw edema; test: carrageenin-induced rat paw edema method (Winter et al.); assay type: in vivo, male Wistar rats; conditions: for protection: 300 mg/kg p.o.
Description: The compound 5-(4-chlorophenyl)-2-furancarboxylic acid (I) [drawing 1] and its preparation have been described in the chemical literature (Mathur et al. , J. Chem. Soc., 1961 (Part 2), 2576-2578). It has now been discovered that this compound exerts impressive anti-inflammatory activity using the well recognized carrageenin- induced rat paw edema method described by Winter et al. in Proc. Soc. […] Positive results secured under this method are correlative to successful performance in other species where the need for anti-inflammatory medication is present.
In accordance with the aforementioned -method, fasted male Wistar rats, 100-125 g., were dosed in groups of 3 with […] p.o. of (1) in 0.5% (wlv) methylcellulose. A control group of 20 rats (groups of 5 rats each combined from 4 separate experiments) received methylcellulose only at the same dose rate of 10 ml/kg. One hour later 0.05 ml of 1% (w/v) carrageenin was injected into the plantar region of the right hindpaw of each rat, using a 27-gauge 1/2-inch needle. Before oral dosing and at 4 and 6 hours post-carrageenin, hindpaw volumes were determined by immersing the feet in a liquid mercury bath to the level of the anatomical hairline. Displacement of the mercury was determined as a pressure difference, measured through a Statham venous pressure transducer coupled to a Grass Model 7 polygraph. The polygraph was calibrated such that a 1 ml displacement produced a 1 mm pen deflection. Two consecutive measurements were taken in all cases and the mean value used in calculations. Calculation of the ED50 value was done as described below for the mouse writhing data. Mean percent protection increased at 4 hours from 0 to 3 mg/kg p.o. to 51.5 at 100 mg/kg p.o. and at 6 hours from 16.6 at 3 mg/kg to 39.9 at 100 mg/kg in a dose-dependent manner. The high dose of 300 mg/kg p.o. gave 34.9 and 23.2% protection at 4 and 6 hours, respectively.

[2] = test system: ultraviolet light-induced cutaneous erythema; test: ultraviolet light-induced cutaneous erythema test (Winder et al.); assay type: in vivo, guinea pigs; conditions: Cavia porcellus, po; linear regression of log dose versus percent protection, combined 2, 3 and 4 hour readings
Method: Guinea pigs weighing 280-715 g were fasted 24 hours and the dorsal-lateral surface was cleared by clipping and chemical depilation. The animals were placed in an opaque rubber glove with three circular, 6 mm punched holes. Exposure for 90 seconds at a distance of 7 cm to a Model 30620 Hanovia ultraviolet lamp with a Type 616A bulb and Type 6540-001 filter produced the erythema. (I) in methylcellulose was administered orally one hour before irradiation to groups of 5 animals at doses from 5 to 153 mg/kg at a rate of 10 mI/kg. Erythema was scored at 2, 3 and 4 hours post-irradiation as 0 (no redness), 0.5 (slight redness) or 1 (full red circle). Percent protection was calculated with reference to a vehicle-dosed control group of 5 animals treated on the same day. ED50 values were estimated by linear regression analysis of the log dose versus percent protection (combined 2, 3 and 4 hour readings) relationship.

[3] = test system: phenylquinone-induced writhing; test: antagonism of phenylquinone-induced writhing (Hendershot and Forsaith); assay type: in vivo, male albino mice; conditions: for Mean percent protection: one hour before phenylquinone i.p.; for ED50: Mus musculus, read-out: dose giving 50% protection (ED50)
Method: Groups of 10 fasted male albino mice, 14-28 g. were dosed by gavage with 18-1,000 mg/kg (I) in 0.5% (w/v) methylcellulose or with methylcellulose solution alone. One hour later each mouse received 10 ml/kg of 0.02% phenylquinone in 5% ethanol intraperitoneally. The characteristic writhing responses were observed and counted from 5 to 15 minutes after phenylquinone administration.

[4] = test system: carrageenin-induced rat paw edema; conditions: same test; Goldenberg et al., Arch. Int. Pharmacodyn. Ther., 243:331-350, 1980; cited from earlier work
[5] = test system: ultraviolet light-induced cutaneous erythema; conditions: similar evaluation; Goldenberg et al., op cit.; cited from earlier work

O=C(O)c1ccc(-c2ccc(Cl)cc2)o1 [(I), 5-(4-chlorophenyl)-2-furancarboxylic acid]
Mean percent protection ([1]; 3 mg/kg p.o., 4 hours post-carrageenin): 0% | Mean percent protection ([1]; 3 mg/kg p.o., 6 hours post-carrageenin): 16.6% | Mean percent protection ([1]; 100 mg/kg p.o., 4 hours post-carrageenin): 51.5% | Mean percent protection ([1]; 100 mg/kg p.o., 6 hours post-carrageenin): 39.9% | protection ([1]; 4 hours post-carrageenin): 34.9% | protection ([1]; 6 hours post-carrageenin): 23.2% | ED50 ([1]; Rattus norvegicus, 4 hours post-carrageenin, oral dose 1 hour before carrageenin): 84.2 mg/kg | ED50 [2]: 24 mg/kg | Mean percent protection ([3]; 18 mg/kg by gavage): 13.1% | Mean percent protection ([3]; 1,000 mg/kg by gavage): 92.4% | ED50 ([3]; linear regression of log oral dose versus percent protection): 213 mg/kg

CC(=O)Oc1ccccc1C(=O)O [aspirin]
ED50 ([3]; po): 182 mg/kg | ED50 value [4]: 155 mg/kg p.o. | ED50 estimate [5]: 49.5 mg/kg p.o.
